The text below walks through data of article PMC8453936, “Development and in vitro Profiling of Dual FXR/LTA4H Modulators” (Chemmedchem, 2021).

Molecules are shown by their SMILES.

Data set [1] has as its system related nuclear receptors (RAR, PPAR, LXR, VDR, CAR, RXR). The data set can be described thus: Gal4 hybrid reporter gene assays, selectivity over related nuclear receptors (HEK293T). It is filed as cell-based, human. To be noted: heatmap of mean relative activation, n=2. The source says: Isothermal titration calorimetry (ITC) confirmed binding of 8 and 19 to the recombinant proteins of both FXR LBD and LTA4H (Figure 1).
Figure 2 (a) Selectivity profiles of 8 and 19 over related nuclear receptors. […] (b) Activity of 8 and 19 in a WST‐1 cell viability assay in HepG2 cells. Data are mean±S.E.M., n=4. […] Data are mean±S.E.M. relative FXR activation (%), n≥3. […] Data are mean±S.E.M. relative LTA4H inhibition (%), n=3.
Hybrid reporter gene assays. Nuclear receptor modulation was determined in hybrid reporter gene assays using the Gal4‐fusion receptor plasmids pFA‐CMV‐hPPARα‐LBD,[39] pFA‐CMV‐hPPARγLBD,[39] pFA‐CMV‐hPPARδ‐LBD,[39] pFA‐CMV‐hLXRα‐LBD,[40] pFACMV‐hLXRβ‐LBD,[40] pFA‐CMV‐hRXRα‐LBD,[41] pFA‐CMV‐hRARα‐LBD,[41] pFA‐CMV‐hVDR‐LBD[41] and pFA‐CMV‐hCAR‐LBD[41] coding for the hinge region and ligand binding domain (LBD) of the canonical isoform of the respective nuclear receptor, pFR‐Luc (Stratagene) as reporter plasmid and pRL‐SV40 (Promega) for normalization of transfection eﬃciency. HEK293T cells were grown in DMEM high glucose, supplemented with 10 % FCS, sodium pyruvate (1 mM), penicillin (100 U/mL), and streptomycin (100 μg/mL) at 37 °C and 5 % CO2, and seeded in 96‐well plates (2.5 ⋅ 10^4 cells/well) the day before transfection. […] Luminescence was measured with an Infinite M200 luminometer (Tecan Deutschland GmbH, Germany). […]
For orientation: Reporter assays use an easily measured gene product as a stand-in for the process of interest.

The target of data set [2] is T1, recombinant human LTA4H (Homo sapiens, UniProt P09960).
T1 sequence (P09960 1-611): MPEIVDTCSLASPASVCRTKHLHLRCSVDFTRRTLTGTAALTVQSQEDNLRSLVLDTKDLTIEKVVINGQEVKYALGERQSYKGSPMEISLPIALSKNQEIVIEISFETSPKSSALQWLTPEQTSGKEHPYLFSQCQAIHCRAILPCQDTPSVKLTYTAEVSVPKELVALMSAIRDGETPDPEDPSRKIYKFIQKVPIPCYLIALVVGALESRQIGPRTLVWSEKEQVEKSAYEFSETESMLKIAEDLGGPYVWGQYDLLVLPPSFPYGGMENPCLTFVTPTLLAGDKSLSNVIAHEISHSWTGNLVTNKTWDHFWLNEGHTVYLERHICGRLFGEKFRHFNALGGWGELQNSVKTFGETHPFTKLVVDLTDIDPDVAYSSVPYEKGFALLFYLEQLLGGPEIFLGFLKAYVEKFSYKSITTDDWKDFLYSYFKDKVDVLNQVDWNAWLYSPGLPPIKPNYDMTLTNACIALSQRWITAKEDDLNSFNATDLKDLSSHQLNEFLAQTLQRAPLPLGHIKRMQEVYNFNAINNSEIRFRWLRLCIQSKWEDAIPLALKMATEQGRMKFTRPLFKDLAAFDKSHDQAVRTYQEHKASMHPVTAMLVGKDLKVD
The data set can be described thus: Isothermal titration calorimetry on LTA4H. Set-up: His-tag (inferred from IMAC on HisTrap); made in house; host or cells: E. coli BL21(DE3)RIPL-Codon Plus. To be noted: ITC, 25 °C, 1:1 binding assumed.

The target in data set [3] is T2, recombinant human FXR LBD (Homo sapiens, UniProt Q96RI1).
T2 construct: Recombinant FXR LBD for ITC experiments was obtained; His6-tag (TEV-cleavable) (cleaved yes); made in house; host or cells: E. coli BL21 (DE3)
T2 sequence (Q96RI1 262-486 limits assumed): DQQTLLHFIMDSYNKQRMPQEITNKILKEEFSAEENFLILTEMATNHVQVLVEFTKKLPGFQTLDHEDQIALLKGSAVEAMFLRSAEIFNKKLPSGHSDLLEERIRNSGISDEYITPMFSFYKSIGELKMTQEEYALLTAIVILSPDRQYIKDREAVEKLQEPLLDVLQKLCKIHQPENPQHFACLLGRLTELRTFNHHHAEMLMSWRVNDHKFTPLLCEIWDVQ
Kind of data set: Isothermal titration calorimetry on FXR LBD. Conditions: ITC, 25 °C, 1:1 binding assumed.

The target of data set [4] is T1, recombinant human LTA4H. Conditions: for LTA4H max. inhib.: LTA4H inhibition at the highest tested concentration (up to 100 μM), mean±S.E.M., n=3.
Source text: FXR modulation by 3–20 was characterized in a cellular (HeLa, transiently transfected) full‐length FXR reporter gene assay employing the human FXR response element from the promoter region of bile salt export protein (BSEP) to govern firefly luciferase expression as reporter gene.[26, 27] FXR and its natural heterodimer partner retinoid X receptor (RXR) were constitutively over‐expressed and a constitutively expressed renilla luciferase was present as internal control for transfection efficiency and cellular health.
LTA4H assay. […] The assay was performed in black polystyrol 96‐well plates in a final volume of 100 μL. Test compound solution in DMSO (1 μL) or DMSO alone as control were incubated with 89 μl protein mixture (containing LTA4H, buffer and Triton‐X‐100). After 30 min, 10 μl of substrate mixture (containing L‐arginin‐7‐amido‐4‐methylcumarine and DMSO in buffer) were added. […] A blank measurement containing no protein was performed and treated as 0 % conversion control. All samples were measured in triplicates and each experiment was conducted in three independent repeats.
The subject of a further data set is HepG2 cells. The data set can be described thus: WST-1 cell viability assay. Conditions: up to 100 μM, 48 h. Format: cell-based.

In the case of `O=C(O)c1ccnc(NC(=O)c2ccc(OCCCc3ccccc3)cc2)c1` [compound 19, 2‐(4‐(3‐Phenylpropoxy)benzamido)isonicotinic acid], the “selectivity over related nuclear receptors” value in data set [1] is on record as “favorable selectivity”. Moreover, the Kd (commonly a measure of binding affinity in units of concentration) on recombinant human LTA4H [2] is approximately 0.7 µM. For the same compound, in data set [3], the Kd was approximately 3 µM. Also, at recombinant human LTA4H [4], the IC50 (commonly the point on the concentration scale where inhibition reaches its midpoint) is 0.45 ± 0.02 µM and the LTA4H max. inhib. worked out at 98.9±0.1%. The “cytotoxic / anti-proliferative effect in WST-1 assay” value in the data set with HepG2 cells was “no cytotoxic effects”.

On to `O=C(O)c1cccc(NC(=O)c2ccc(OCCCc3ccccc3)cc2)c1` [compound 8], for which the “selectivity over related nuclear receptors” value in data set [1] was “favorable selectivity”. Also, the Kd on recombinant human LTA4H [2] was approximately 0.3 µM. The Kd in data set [3] was approximately 7 µM. In addition, at recombinant human LTA4H [4], the IC50 is 0.14 ± 0.01 µM and the LTA4H max. inhib. was 98.8±0.1%. Besides, the “cytotoxic / anti-proliferative effect in WST-1 assay” value with HepG2 cells was “slight anti‐proliferative activity at high concentration”.
